# Source: PubChem BioAssay AID602307 (Southern Research Specialized Biocontainment Screening …, 2012)
# The source made the active and inactive calls. How the calls were made is not given here.
# System: VEEV TC-83 infected cells, virus titer reduction
# Assay: VEEV titer reduction by compounds, cell-based, TC-83 strain, virus titer (AID 602307)
# Conditions: for log virus titer change: stronger effect = lower value
Structure (SMILES),outcome,"log virus titer change (titer change, at 10 µM)",log virus titer change (at 5 µM)
Cc1ccccc1C(=O)Nc1ccc2c(c1)CCCN2C(=O)c1cccs1,active,-2.04,–
O=C(Cc1cccs1)Nc1nc2c(s1)CCCC2,active,-2.14,–
CN(C(=O)Cc1cccs1)c1nc2c(s1)CCCC2,–,–,0.281 (inactive)
O=c1c2cc([N+](=O)[O-])ccc2nc(CN2CCN(c3ccccc3)CC2)n1-c1ccccc1F,active,-1.3,–
O=C(Oc1ccc2ccccc2c1Br)N1CCCCCC1,active,-2.09,–
CCOC(=O)c1ccc(Nc2nc(=O)c3cccnc3s2)cc1,active,-3.31,–
O=C(Nc1nc2c(s1)CCCC2)c1cccs1,–,–,-0.12 (inactive)
CN1CCN(Cc2nc3ccc([N+](=O)[O-])cc3c(=O)n2-c2ccccc2F)CC1,–,–,< -6.36
O=C(Cc1cccs1)Nc1nc2ccccc2s1,–,–,-0.238 (inactive)
O=C(Cc1cccs1)Nc1nccs1,–,–,-0.062 (inactive)
CC(C)N1CCN(Cc2nc3ccc([N+](=O)[O-])cc3c(=O)n2-c2ccccc2F)CC1,–,–,0.041 (inactive)
O=C(Cc1ccccc1)Nc1nc2c(s1)CCCC2,–,–,-0.01 (inactive)
O=c1c2cc([N+](=O)[O-])ccc2nc(CN2CCOCC2)n1-c1ccccc1F,–,–,0.297 (inactive)
CCN1CCN(Cc2nc3ccc([N+](=O)[O-])cc3c(=O)n2-c2ccccc2F)CC1,–,-5.8,< -6.36
Clc1ccc2nnnc(-c3ccccc3)c2c1,active,-4.36,–
Cc1cc(Cc2cc(C)cc(C(C)(C)C)c2O)c(O)c(Cc2cc(C)cc(C(C)(C)C)c2O)c1,–,–,-0.734 (inactive)
O=c1nc(Nc2ccc(OCc3ccccc3)cc2)sc2ncccc12,active,-3.43,–
